Reference: US20170196802A1, “Long Acting Injectable Formulations” (Abon Pharmaceuticals, LLC, priority 2016, published 2017)
Where two headings read alike, the source gives them in different places.

Experiments:
[1] = after oral administration of a 40 mg tablet; package insert; cited from earlier work
[2] = weight gain, diabetes risk, dyslipidemia risk; cited from earlier work
[3] = pH dependence; cited from earlier work
[4] = Pharmacokinetic study, intramuscular injection, four arm parallel; format: in vivo, male Sprague-Dawley Rats; details: male, Sprague-Dawley, im, rat
Experimental: A long acting formulation is expected to suppress the maximum blood concentration (Cmax) and maintain therapeutic blood profiles for an extended period of time. […] To evaluate the in-vivo performance of our formulations, three suspensions of Lurasidone HCl were prepared with varying particle size and/or viscosity at 100 mg/mL with compositions given in Table 23, and with processes shown in FIGS. 11, 12 and 13 for Suspensions 1, 2, and 3, respectively. As a control, a solution of Lurasidone HCl was prepared at 2.5 mg/mL. […]
The blood samples were collected, placed into chilled tubes containing sodium heparin, inverted several times to mix, and kept on ice until centrifugation. […] Samples were analyzed with LC-MS/MS against an eight point standard curve with concentrations ranging from 0.05 ng/mL to 100 ng/mL. […]
Mass Spectrometer Conditions • Instrument: PE Sciex API4000 • Interface: Electrospray (“Turbo Ion Spray”) • Mode: Multiple reactions monitoring (MRM) • Gases: CUR 20, CAD 10, GS1 50, GS2 50 • Source Temperature: 500° C. • Voltages and Ions Monitored:
The formulations were well tolerated, and no adverse local or systemic reactions were observed following intramuscular administration of lurasidone to the animals. (Pharmacokinetic parameters were calculated with Phoenix WinNonlin version 6.4). […]

For `O=C1[C@@H]2[C@H]3CC[C@H](C3)[C@@H]2C(=O)N1C[C@@H]1CCCC[C@H]1CN1CCN(c2nsc3ccccc23)CC1` [lurasidone], the half-life [1] is listed as 18 h, the metabolic effects [2] is listed as “low” and the solubility profile [3] is listed as “lower solubility at higher pH values”. It also gave a half-life ([4]; 1.5 mg/kg, calculated based on terminal phase plasma concentrations above 2% of Cmax) of 10 h and a half-life ([4]; plasma, 45 mg/kg) of at most 505 h.
For `CN1CCN(C2=Nc3cc(Cl)ccc3Nc3ccccc32)CC1` [clozapine], the metabolic effects [2] is given as “moderate to high”.
For `Cc1cc2c(s1)Nc1ccccc1N=C2N1CCN(C)CC1` [olanzapine], the metabolic effects [2] is listed as “moderate to high”.
In the case of `OCCOCCN1CCN(C2=Nc3ccccc3Sc3ccccc32)CC1` [quetiapine], the metabolic effects [2] is listed as “moderate to high”.
